This assay concerns the target BRD4 (BDI_K57-E168) (Homo sapiens, UniProt O60885). Description: TR-FRET bromodomain binding assay, BRD4 BDI. For orientation: TR-FRET usually uses a lanthanide donor and a delayed reading to cut background.
On to `Cc1cc(F)cc(C)c1Oc1ccc(C(C)(C)O)cc1-c1cn(C)c(=O)cc1O[C@H]1CC[C@H](CNC(=O)OC(C)(C)C)CC1` [Example 15, tert-butyl [trans-4-({5-[2-(4-fluoro-2,6-dimethylphenoxy)-5-(2-hydroxypropan-2-yl)phenyl]-1-methyl-2-oxo-1,2-dihydropyridin-4-yl}oxy)cyclohexyl]methylcarbamate], for which the affinity corresponds to a Ki of 6.02 µM. On to `Cc1cc(F)cc(C)c1Oc1ccc(C(C)(C)O)cc1-c1cn(C)c(=O)cc1O[C@H]1CC[C@H](N2CCCOC2=O)CC1` [Example 39, 3-[trans-4-({5-[2-(4-fluoro-2,6-dimethylphenoxy)-5-(2-hydroxypropan-2-yl)phenyl]-1-methyl-2-oxo-1,2-dihydropyridin-4-yl}oxy)cyclohexyl]-1,3-oxazinan-2-one], for which the Ki – broadly, the equilibrium dissociation constant of an inhibitor or competing ligand from its target – was found to be 2.25 µM.

Turning to `COC(=O)N[C@H]1CC[C@H](Oc2cc(=O)n(C)cc2-c2cc(C(C)(C)O)ccc2Oc2c(C)cc(F)cc2C)CC1` [Example 4, methyl [trans-4-({5-[2-(4-fluoro-2,6-dimethylphenoxy)-5-(2-hydroxypropan-2-yl)phenyl]-1-methyl-2-oxo-1,2-dihydropyridin-4-yl}oxy)cyclohexyl]carbamate], affinity was put at a Ki of 1.45 µM.

`Cc1cc(F)cc(C)c1Oc1ccc(C(C)(C)O)cc1-c1cn(C)c(=O)cc1O[C@H]1CC[C@H](N2C(=O)CC(C)(C)C2=O)CC1` [Example 90, 1-[trans-4-({5-[2-(4-fluoro-2,6-dimethylphenoxy)-5-(2-hydroxypropan-2-yl)phenyl]-1-methyl-2-oxo-1,2-dihydropyridin-4-yl}oxy)cyclohexyl]-3,3-dimethylpyrrolidine-2,5-dione] yielded a Ki of 11.5 µM. Against the preceding compound, the Ki is about 7.9-fold higher. `Cc1cc(F)cc(C)c1Oc1ccc(C(C)(C)O)cc1-c1cn(C)c(=O)cc1O[C@H]1C[C@@H](C(=O)N2CCCC2)C1` [Example 96, 5-[2-(4-fluoro-2,6-dimethylphenoxy)-5-(2-hydroxypropan-2-yl)phenyl]-1-methyl-4-{[cis-3-(pyrrolidine-1-carbonyl)cyclobutyl]oxy}pyridin-2(1H)-one] came in with a Ki of 2.2 µM.

`Cc1cc(F)cc(C)c1Oc1ccc(C(C)(C)O)cc1-c1cn(C)c(=O)cc1O[C@H]1CC[C@H](NC(=O)CCO)CC1` [Example 49, N-[trans-4-({5-[2-(4-fluoro-2,6-dimethylphenoxy)-5-(2-hydroxypropan-2-yl)phenyl]-1-methyl-2-oxo-1,2-dihydropyridin-4-yl}oxy)cyclohexyl]-3-hydroxypropanamide] came in with a Ki of 2.53 µM. `Cc1cc(F)cc(C)c1Oc1ccc(C(C)(C)O)cc1-c1cn(C)c(=O)cc1O[C@H]1CC[C@H](NC(=O)C23CCC(CO)(CC2)CC3)CC1` (relative stereo) [Example 110, N-[trans-4-({5-[2-(4-fluoro-2,6-dimethylphenoxy)-5-(2-hydroxypropan-2-yl)phenyl]-1-methyl-2-oxo-1,2-dihydropyridin-4-yl}oxy)cyclohexyl]-4-(hydroxymethyl)bicyclo[2.2.2]octane-1-carboxamide] came in with a Ki of 3.65 µM. This Ki and that of the compound before are within 1.5-fold of each other.

Compound `Cc1cc(F)cc(C)c1Oc1ccc(C(C)(C)O)cc1-c1cn(C)c(=O)cc1O[C@H]1CC[C@H](NC(=O)C23CC(C2)C3)CC1` (relative stereo) [Example 86, N-[trans-4-({5-[2-(4-fluoro-2,6-dimethylphenoxy)-5-(2-hydroxypropan-2-yl)phenyl]-1-methyl-2-oxo-1,2-dihydropyridin-4-yl}oxy)cyclohexyl]bicyclo[1.1.1]pentane-1-carboxamide] displayed a Ki of 1.74 µM. Next, `Cc1cc(F)cc(C)c1Oc1ccc(C(C)(C)O)cc1-c1cn(C)c(=O)cc1O[C@H]1CC[C@H](n2cnccc2=O)CC1` [Example 144, 3-[trans-4-({5-[2-(4-fluoro-2,6-dimethylphenoxy)-5-(2-hydroxypropan-2-yl)phenyl]-1-methyl-2-oxo-1,2-dihydropyridin-4-yl}oxy)cyclohexyl]pyrimidin-4(3H)-one]: greater than 13 µM.

(Values after patent US20210047304A1, “Bromodomain Inhibitors” (AbbVie Inc., priority 2016, published 2021).)
